Measured values as given in PubChem BioAssay AID328 (DTP/NCI, 2004).
Where “and” joins values, the source holds several entries; their conditions need not be identical. Identical values can stand only once. Toxic doses and inconclusive results are not listed.

Test system: BDF1 mice, P388 leukemia ip, median survival T/C
Assay: NCI In Vivo Anticancer Drug Screen. Data for tumor model P388 Leukemia (intraperitoneal) in B6D2F1 (BDF1) mice
Details: endpoint: median survival time, higher = longer survival
Summary of the method: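 Transplantable tumour in mice; compound vs vehicle dosing; survival scored; ratio of treated to control reported.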

[1] = dose: 3.12 mg/kg/injection, schedule: Q01DX009 (ip), vehicle: saline
[2] = dose: 12.5 mg/kg/injection, schedule: Q01DX009 (ip), vehicle: saline
[3] = dose: 100.0 mg/kg/injection, schedule: Q04DX003 (ip), vehicle: saline with Tween-80
[4] = dose: 200.0 mg/kg/injection, schedule: Q04DX003 (ip), vehicle: saline with Tween-80
[5] = dose: 50.0 mg/kg/injection, schedule: Q01DX009 (ip), vehicle: saline with Tween-80
[6] = dose: 100.0 mg/kg/injection, schedule: Q01DX009 (ip), vehicle: saline with Tween-80
[7] = dose: 200.0 mg/kg/injection, schedule: Q01DX009 (ip), vehicle: saline with Tween-80
[8] = dose: 400.0 mg/kg/injection, schedule: Q01DX009 (ip), vehicle: saline with Tween-80
[9] = dose: 400.0 mg/kg/injection, schedule: Q04DX003 (ip), vehicle: saline with Tween-80
[10] = dose: 25.0 mg/kg/injection, schedule: Q01DX009 (ip), vehicle: saline
[11] = dose: 50.0 mg/kg/injection, schedule: Q01DX009 (ip), vehicle: saline

Structure (SMILES): Cn1c(N)c(N=O)c(=O)n(C)c1=O
- T/C [1]: 109 % of control
- T/C (dose: 6.25 mg/kg/injection, schedule: Q01DX009 (ip), vehicle: saline): 100 % of control
- T/C [2]: 100 % of control
- T/C (dose: 25.0 mg/kg/injection, schedule: Q01DX009 (ip), vehicle: Klucel (hydroxypropylcellulose) (HPC)): 95 % of control
- T/C (dose: 50.0 mg/kg/injection, schedule: Q01DX009 (ip), vehicle: Klucel (hydroxypropylcellulose) (HPC)): 90 % of control
- T/C (dose: 100.0 mg/kg/injection, schedule: Q04DX003 (ip), vehicle: alcohol): 109 % of control
- T/C (dose: 125.0 mg/kg/injection, schedule: Q01DX010 (ip), vehicle: other): 109 % of control
- T/C (dose: 200.0 mg/kg/injection, schedule: Q04DX003 (ip), vehicle: alcohol): 100 % of control
- T/C (dose: 250.0 mg/kg/injection, schedule: Q01DX010 (ip), vehicle: other): 86 % of control
- T/C (dose: 400.0 mg/kg/injection, schedule: Q04DX003 (ip), vehicle: alcohol): 100 % of control

Structure (SMILES): Cn1ccoc1=NC1CCCCC1
- T/C (dose: 50.0 mg/kg/injection, schedule: Q04DX003 (ip), vehicle: saline with Tween-80): 100 % of control
- T/C [3]: 100 % of control
- T/C [4]: 109 % of control

Structure (SMILES): CC(c1ccccc1)(c1ccccc1)c1ccccc1
- T/C [5]: 101 % of control
- T/C [6]: 101 % of control
- T/C [7]: 97 % of control

Structure (SMILES): O=c1[nH]c(=O)[nH]c(=O)[nH]1
- T/C (dose: 75.0 mg/kg/injection, schedule: Q01DX009 (ip), vehicle: Klucel (hydroxypropylcellulose) (HPC)): 120 % of control
- T/C (dose: 150.0 mg/kg/injection, schedule: Q01DX009 (ip), vehicle: Klucel (hydroxypropylcellulose) (HPC)): 120 % of control
- T/C (dose: 300.0 mg/kg/injection, schedule: Q01DX009 (ip), vehicle: Klucel (hydroxypropylcellulose) (HPC)): 110 % of control

Structure (SMILES): CCCCCC(=O)O[C@]1(C(C)=O)CC[C@H]2[C@@H]3CCC4=CC(=O)CC[C@]4(C)[C@H]3CC[C@@]21C
- T/C (dose: 44.0 mg/kg/injection, schedule: Q01DX009 (ip), vehicle: saline with Tween-80): 105 % of control
- T/C (dose: 66.0 mg/kg/injection, schedule: Q01DX009 (ip), vehicle: saline with Tween-80): 110 % of control
- T/C [6]: 90 % of control
- T/C [3]: 100 % of control
- T/C (dose: 150.0 mg/kg/injection, schedule: Q01DX009 (ip), vehicle: saline with Tween-80): 100 % of control
- T/C [7]: 105 % of control
- T/C [4]: 100 % of control
- T/C [8]: 100 % of control
- T/C [9]: 100 % of control

Structure (SMILES): CN(C)P(=O)(N(C)C)N(C)CCN(C)P(=O)(N(C)C)N(C)C
- T/C [2]: 108 % of control
- T/C [10]: 101 % of control
- T/C [11]: 101 % of control and 111 % of control

Structure (SMILES): COC1C(O)CC(=O)OC(C)C/C=C/C=C/C(OC2CCC(N(C)C)C(C)O2)C(C)CC(CC=O)C1OC1OC(C)C(OC2CC(C)(O)C(O)C(C)O2)C(N(C)C)C1O (stereo unspecified)
- T/C (dose: 6.25 mg/kg/injection, schedule: Q01DX009 (ip), vehicle: saline with Tween-80): 102 % of control
- T/C (dose: 12.5 mg/kg/injection, schedule: Q01DX009 (ip), vehicle: saline with Tween-80): 94 % of control
- T/C (dose: 25.0 mg/kg/injection, schedule: Q01DX009 (ip), vehicle: saline with Tween-80): 100 % of control

Structure (SMILES): CC1(C)N=C(N)N=C(N)N1c1ccc(F)c(C(F)(F)F)c1
- T/C [1]: 120 % of control
- T/C [2]: 169 % of control and 189 % of control
- T/C (dose: 16.0 mg/kg/injection, schedule: Q01DX009 (ip), vehicle: saline): 216 % of control
- T/C [10]: 245 % of control and 87 % of control and 191 % of control
- T/C [11]: 216 % of control

Structure (SMILES): CCCCCCCCC(CO)CO
- T/C [5]: 100 % of control
- T/C [6]: 92 % of control
- T/C [7]: 95 % of control

Structure (SMILES): Cc1ccc(C(C#N)Nc2ccccc2)cc1 (stereo unspecified)
- T/C [6]: 100 % of control
- T/C [3]: 100 % of control
- T/C [7]: 115 % of control
- T/C [4]: 100 % of control
- T/C [8]: 100 % of control
- T/C [9]: 104 % of control

Structure (SMILES): O=[N+]([O-])C(Br)(c1ccccc1)S(=O)(=O)Cc1ccccc1 (stereo unspecified)
- T/C (dose: 100.0 mg/kg/injection, schedule: Q04DX003 (ip), vehicle: Klucel (hydroxypropylcellulose) (HPC)): 104 % of control
- T/C (dose: 200.0 mg/kg/injection, schedule: Q04DX003 (ip), vehicle: Klucel (hydroxypropylcellulose) (HPC)): 108 % of control
- T/C (dose: 400.0 mg/kg/injection, schedule: Q04DX003 (ip), vehicle: Klucel (hydroxypropylcellulose) (HPC)): 108 % of control
